Test results as given in PubChem BioAssay AID248 (DTP/NCI, 2004).
Where “and” joins values, the source holds several entries; their conditions need not be identical. Equal values may be shown once. Inconclusive results and toxic doses are left out. Rule as the data show it: active = T/C of 150% or more; inactive = T/C below 125%.

Tested on: L1210 leukemia ip in BDF1 mice, survival T/C
Test: NCI In Vivo Anticancer Drug Screen. Data for tumor model L1210 Leukemia (intraperitoneal) in B6D2F1 (BDF1) mice
Details: endpoint: mean survival time, higher = longer survival
Summary of the method: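 Survival endpoint. Drug-treated group vs vehicle group, expressed as T divided by C. Tumor passaged by transplantation.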

[1] = dose: 100.0 mg/kg/injection, schedule: Q01DX009 (ip), vehicle: Klucel (hydroxypropylcellulose) (HPC)
[2] = dose: 100.0 mg/kg/injection, schedule: Q04DX003 (ip), vehicle: Klucel (hydroxypropylcellulose) (HPC)
[3] = dose: 200.0 mg/kg/injection, schedule: Q01DX009 (ip), vehicle: Klucel (hydroxypropylcellulose) (HPC)
[4] = dose: 200.0 mg/kg/injection, schedule: Q04DX003 (ip), vehicle: Klucel (hydroxypropylcellulose) (HPC)
[5] = dose: 400.0 mg/kg/injection, schedule: Q01DX009 (ip), vehicle: Klucel (hydroxypropylcellulose) (HPC)
[6] = dose: 400.0 mg/kg/injection, schedule: Q04DX003 (ip), vehicle: Klucel (hydroxypropylcellulose) (HPC)
[7] = dose: 100.0 mg/kg/injection, schedule: Q01DX009 (ip), vehicle: saline
[8] = dose: 100.0 mg/kg/injection, schedule: Q01DX001 (ip), vehicle: carboxymethylcellulose (CMC)
[9] = dose: 200.0 mg/kg/injection, schedule: Q01DX001 (ip), vehicle: carboxymethylcellulose (CMC)
[10] = dose: 400.0 mg/kg/injection, schedule: Q01DX001 (ip), vehicle: carboxymethylcellulose (CMC)
[11] = dose: 50.0 mg/kg/injection, schedule: Q01DX009 (ip), vehicle: saline with Tween-80
[12] = dose: 100.0 mg/kg/injection, schedule: Q04DX003 (ip), vehicle: saline with Tween-80
[13] = dose: 200.0 mg/kg/injection, schedule: Q04DX003 (ip), vehicle: saline with Tween-80
[14] = dose: 400.0 mg/kg/injection, schedule: Q01DX009 (ip), vehicle: saline with Tween-80
[15] = dose: 400.0 mg/kg/injection, schedule: Q04DX003 (ip), vehicle: saline with Tween-80
[16] = dose: 25.0 mg/kg/injection, schedule: Q01DX009 (ip), vehicle: other
[17] = dose: 100.0 mg/kg/injection, schedule: Q01DX009 (ip), vehicle: saline with Tween-80
[18] = dose: 50.0 mg/kg/injection, schedule: Q01DX009 (ip), vehicle: Klucel (hydroxypropylcellulose) (HPC)

Measured: T/C

Cc1cc(Br)c(C)cc1Br
inactive: dose: 50.0 mg/kg/injection, schedule: Q01DX001 (ip), vehicle: saline 100 % of control | dose: 100.0 mg/kg/injection, schedule: Q01DX001 (ip), vehicle: saline 100 % of control | [1] 98 % of control | [2] 100 % of control | dose: 200.0 mg/kg/injection, schedule: Q01DX001 (ip), vehicle: saline 103 % of control | [3] 93 % of control | [4] 98 % of control | dose: 400.0 mg/kg/injection, schedule: Q01DX001 (ip), vehicle: saline 103 % of control | [5] 90 % of control | [6] 100 % of control

N#Cc1ccc(-c2ccccc2)cc1
inactive: dose: 50.0 mg/kg/injection, schedule: Q04DX002 (ip), vehicle: other 103 % of control | dose: 100.0 mg/kg/injection, schedule: Q04DX002 (ip), vehicle: other 95 % of control | dose: 200.0 mg/kg/injection, schedule: Q04DX002 (ip), vehicle: other 117 % of control

NCC1OC(OC2C(CO)OC(OC3C(O)C(N)CC(N)C3OC3OC(CO)C(O)CC3N)C2O)C(N)C(O)C1OC1OC(CO)C(O)C(O)C1O (stereo not given)
inactive: dose: 100.0 mg/kg/injection, schedule: Q01DX005 (ip), vehicle: saline 96 % of control | [7] 100 % of control | dose: 200.0 mg/kg/injection, schedule: Q01DX005 (ip), vehicle: saline 101 % of control | dose: 200.0 mg/kg/injection, schedule: Q01DX009 (ip), vehicle: saline 110 % of control | dose: 400.0 mg/kg/injection, schedule: Q01DX005 (ip), vehicle: saline 101 % of control | dose: 400.0 mg/kg/injection, schedule: Q01DX009 (ip), vehicle: saline 100 % of control

NC(=S)N/N=C/C=N/NC(N)=S
inactive: dose: 50.0 mg/kg/injection, schedule: Q01DX001 (ip), vehicle: carboxymethylcellulose (CMC) 97 % of control | [8] 91 % of control | [9] 95 % of control | [10] 101 % of control | dose: 1.0 micrograms/kg/injection, schedule: Q01DX009 (ip), vehicle: carboxymethylcellulose (CMC) 107 % of control | dose: 5.0 micrograms/kg/injection, schedule: Q01DX009 (ip), vehicle: carboxymethylcellulose (CMC) 98 % of control

CCOc1ccc(NC(=O)CCCCCCCCC(=O)Nc2ccc(OCC)cc2)cc1
inactive: [11] 98 % of control | dose: 100.0 mg/kg/injection, schedule: Q01DX001 (ip), vehicle: saline with Tween-80 96 % of control | dose: 100.0 mg/kg/injection, schedule: Q04DX002 (ip), vehicle: saline with Tween-80 95 % of control and 110 % of control | [12] 88 % of control | dose: 200.0 mg/kg/injection, schedule: Q01DX001 (ip), vehicle: saline with Tween-80 91 % of control | dose: 200.0 mg/kg/injection, schedule: Q04DX002 (ip), vehicle: saline with Tween-80 100 % of control and 89 % of control | [13] 96 % of control | dose: 400.0 mg/kg/injection, schedule: Q01DX001 (ip), vehicle: saline with Tween-80 88 % of control | [14] 100 % of control and 108 % of control | dose: 400.0 mg/kg/injection, schedule: Q04DX002 (ip), vehicle: saline with Tween-80 94 % of control and 97 % of control | [15] 91 % of control

c1ccc(NC2CCCCC2)cc1
inactive: dose: 50.0 mg/kg/injection, schedule: Q01DX003 (ip), vehicle: Klucel (hydroxypropylcellulose) (HPC) 103 % of control | dose: 100.0 mg/kg/injection, schedule: Q01DX003 (ip), vehicle: Klucel (hydroxypropylcellulose) (HPC) 101 % of control | dose: 200.0 mg/kg/injection, schedule: Q01DX003 (ip), vehicle: Klucel (hydroxypropylcellulose) (HPC) 101 % of control

O=C(C=C(C(F)(F)F)C(F)(F)F)c1ccccc1[N+](=O)[O-]
inactive: dose: 6.25 mg/kg/injection, schedule: Q01DX009 (ip), vehicle: other 96 % of control | dose: 12.5 mg/kg/injection, schedule: Q01DX009 (ip), vehicle: other 102 % of control | [16] 102 % of control

O=[N+]([O-])c1ccc(CCCl)cc1
inactive: dose: 100.0 mg/kg/injection, schedule: Q04DX003 (ip), vehicle: acetone 102 % of control | dose: 200.0 mg/kg/injection, schedule: Q04DX003 (ip), vehicle: acetone 104 % of control | dose: 400.0 mg/kg/injection, schedule: Q04DX003 (ip), vehicle: acetone 92 % of control

CC(O)c1ccc(-c2ccccc2)cc1 (stereo not given)
inactive: [1] 94 % of control | [2] 95 % of control | [3] 97 % of control | [4] 101 % of control | [5] 111 % of control | [6] 98 % of control

COC(=O)/C=C1\C(C(=O)OC)=Cc2ccccc2N1C
inactive: [17] 97 % of control | [12] 98 % of control | dose: 200.0 mg/kg/injection, schedule: Q01DX009 (ip), vehicle: saline with Tween-80 91 % of control | [13] 98 % of control | [14] 94 % of control | [15] 96 % of control

O=C(O)c1c(Cl)cccc1Cl
inactive: dose: 25.0 mg/kg/injection, schedule: Q01DX009 (ip), vehicle: saline with Tween-80 92 % of control | [11] 93 % of control | [17] 93 % of control and 87 % of control | [12] 98 % of control | [13] 95 % of control | [15] 95 % of control

CC1(C)SC(C(NC(=O)Cc2ccccc2)C(=O)O)NC1C(=O)O (stereo not given)
inactive: [17] 92 % of control | [14] 97 % of control

CC(C)c1ccc(/C=N/NC(=O)c2ccncc2)cc1
inactive: [7] 100 % of control

Oc1ccc(C2CCCCC2)c(O)c1
inactive: [18] 96 % of control | dose: 50.0 mg/kg/injection, schedule: Q04DX003 (ip), vehicle: Klucel (hydroxypropylcellulose) (HPC) 101 % of control | [1] 96 % of control | [2] 98 % of control | [3] 100 % of control | [4] 103 % of control

CCCCCCCC(=O)NN
inactive: [16] 104 % of control | dose: 50.0 mg/kg/injection, schedule: Q01DX009 (ip), vehicle: carboxymethylcellulose (CMC) 89 % of control | dose: 50.0 mg/kg/injection, schedule: Q01DX009 (ip), vehicle: other 93 % of control | [8] 117 % of control | dose: 100.0 mg/kg/injection, schedule: Q01DX009 (ip), vehicle: carboxymethylcellulose (CMC) 86 % of control | dose: 100.0 mg/kg/injection, schedule: Q01DX009 (ip), vehicle: other 98 % of control | [9] 97 % of control | dose: 200.0 mg/kg/injection, schedule: Q01DX009 (ip), vehicle: other 107 % of control | [10] 95 % of control | dose: 400.0 mg/kg/injection, schedule: Q01DX009 (ip), vehicle: other 98 % of control

C#CCCCCC#CCCCCNC(=O)NCCCCC#CCCCCC#C
inactive: dose: 100.0 mg/kg/injection, schedule: Q04DX003 (ip), vehicle: saline 93 % of control | dose: 200.0 mg/kg/injection, schedule: Q04DX003 (ip), vehicle: saline 90 % of control | dose: 400.0 mg/kg/injection, schedule: Q04DX003 (ip), vehicle: saline 87 % of control

O=C1C=C(c2ccccc2)C(c2ccccc2)C1=O (stereo not given)
inactive: dose: 50.0 mg/kg/injection, schedule: Q04DX002 (ip), vehicle: Klucel (hydroxypropylcellulose) (HPC) 106 % of control | dose: 100.0 mg/kg/injection, schedule: Q04DX002 (ip), vehicle: Klucel (hydroxypropylcellulose) (HPC) 98 % of control | dose: 200.0 mg/kg/injection, schedule: Q04DX002 (ip), vehicle: Klucel (hydroxypropylcellulose) (HPC) 95 % of control and 111 % of control | dose: 400.0 mg/kg/injection, schedule: Q04DX002 (ip), vehicle: Klucel (hydroxypropylcellulose) (HPC) 93 % of control

COC(=O)c1cccc2c1ccc1ccccc12
inactive: dose: 37.5 mg/kg/injection, schedule: Q04DX003 (ip), vehicle: saline 92 % of control | [18] 111 % of control | dose: 75.0 mg/kg/injection, schedule: Q04DX003 (ip), vehicle: saline 94 % of control | [1] 105 % of control | dose: 150.0 mg/kg/injection, schedule: Q04DX003 (ip), vehicle: saline 89 % of control | [3] 96 % of control
